Read-outs that look alike come from different tables or passages of the source.

Series [1] deals with nymphs of Dysdercus cingulatus. The experiment in a line: Dorsal application of Abamectin and Vitamin E derivatives, mortality (Example 19). The series is classed as in vivo. The following applies: combination of Abamectin and the Vitamin E derivative; 2 μl dorsally; Colby. As for the experimental part: Various solutions of Vitamin E derivatives, Abamectin and combinations of Vitamin E derivatives and Abamectin were applied dorsally on nymphs of Dysdercus cingulatus. On each Dysdercus cingulatus 2 μl test solution was applied. The mortality of the treatments was recorded. The mortality results were analysed according to Colby. The synergistic activity of Abamectin and various Vitamin E derivatives on Dysdercus cingulatus is illustrated in table 19.

For series [2], the system named is Teladorsagia (Ostertagia) circumcincta. The experiment in a line: Larvae feeding inhibition study (Example 23). The settings on record: mixtures: based on concentration of IVM or DOR; for LFI-50 T. cir.: larvae feeding inhibition 50%; for LFI-96 T. cir.: larvae feeding inhibition 96%; for LFI-99 T. cir.: larvae feeding inhibition 99%. The text has this:
(§1) The calculations done according to Wadley and shown in Table 23 indicate that synergistic action of Ivermectin and tocopheryl acetate and Doramectin and tocopheryl acetate was pre-sent in the larvae feed inhibition study. The synergistic action of Ivermectin and tocepheryl acetate in the H. contortus experiment is of particular interest because the H. contortus iso-late used was Ivermectin resistant.

Another series concerns Haemonchus contortus. The experiment in a line: Larvae feeding inhibition study (Example 23). The following applies: Ivermectin resistant isolate, mixtures: based on concentration of IVM or DOR; for LFI-50 H. con.: larvae feeding inhibition 50%; for LFI-96 H. con.: larvae feeding inhibition 96%; for LFI-99 H. con.: larvae feeding inhibition 99%.
From the text: as §1

For series [3], the system named is Trichostrongylus colubriformis. The experiment in a line: Larvae feeding inhibition study (Example 23). The following applies: mixtures: based on concentration of IVM or DOR; for LFI-50 T. col.: larvae feeding inhibition 50%; for LFI-96 T. col.: larvae feeding inhibition 96%; for LFI-99 T. col.: larvae feeding inhibition 99%.
From the text: as §1

Series [4] concerns Dysdercus cingulatus nymphs. The series is classed as in vivo. As for the experimental part: A range of Ivermectin solutions in acetone was prepared. Similarly, a range of tocopherol solutions was prepared. Mixed solutions of Ivermectin and tocopherol in acetone were prepared as well. Nymphs of Dysdercus cingulatus were treated topically with either an Ivermectin acetone solution (2 μl), a tocopherol acetone solution (2 μl) or mixed solutions (2 μl).
The mortality was recorded after 24 and 48 h. The results were evaluated by the Colby-method.

The subject of series [5] is Onchocerca lienalis microfilariae. The experiment in a line: Microfilariae mobility test (Example 26). The following applies: mobility of the microfilariae; read-out: EC50 value for Ivermectin.
Series [6] deals with Dysdercus cingulatus nymphs. It is filed as in vivo. As for the experimental part: Abamectin, Ivermectin and tocopherol solutions in acetone were prepared. Mixed solutions of either Abamectin or Ivermectin and tocopherol were also prepared. Nymphs of Dysdercus cingulatus were treated topically with Abamectin acetone solution (20,000 ng/nymph), Ivermectin acetone solution (20,000 ng/nymph), a tocopherol acetone solution (20,000 ng/nymph) or a solution containing Abamectin and tocopherol or Ivermectin and tocopherol in the ratio 1:3 (20,000 ng total/nymph). The solutions were applied dorsally on the nymphs.
The Dysdercus cingulatus mortality was followed over time and recorded. Log time-mortality curves were constructed for the Abamectin and Ivermectin solutions and for the mixtures with tocopherol. An LT50 value was calculated for each application.
The source holds these as a separate data set.

Series [7] concerns houseflies. The experiment in a line: Dorsal application of Abamectin and Vitamin E derivatives, mortality (Example 18). It is filed as in vivo, housefly. The following applies: combination of Abamectin and the Vitamin E derivative; 2 μl dorsally; Colby. As for the experimental part:
Various solutions of Vitamin E derivatives, Abamectin and combinations of Vitamin E derivatives and Abamectin were applied dorsally on houseflies. On each housefly 2 μl test solution was applied. The mortality of the treatments was recorded. The mortality results were analysed according to Colby. The synergistic activity of Abamectin and various Vitamin E derivatives on houseflies is illustrated in table 18.

Series [8] deals with houseflies. The experiment in a line: Dorsal application of Abamectin and nicotinic acid derivatives, mortality (Example 21). The series is classed as in vivo, housefly. The settings on record: combination of Abamectin and the nicotinic acid derivative; 2 μl dorsally; Colby. The protocol:
Various solutions of nicotinic acid derivatives, Abamectin and combinations of nicotinic acid derivatives and Abamectin were applied dorsally on houseflies. On each housefly 2 μl test solution was applied. The mortality of the treatments was recorded. The mortality results were analysed according to Colby.

Series [9] concerns cat fleas (Ctenocephalides felis felis) larvae. The experiment in a line: In vitro contact test on flea larvae (Example 25). The following applies: inactivation of the fleas; mixture: based on the concentration of Selamectin.
Series [10] relates to cat fleas (Ctenocephalides felis felis) adult. The experiment in a line: In vitro contact test on adult fleas (Example 25). The settings on record: inactivation of the fleas; mixture: based on the concentration of Selamectin.
In series [11] the test system is cat fleas (Ctenocephalides felis felis) larvae. The experiment in a line: In vitro larvae test based on systemic activity (Example 25). The settings on record: inactivation of the fleas; mixture: based on the concentration of Selamectin.
The subject of a further series is Tetranychus urticae. The experiment in a line: Spray test of Spinosad and tocopheryl acetate on bean plants (Vicia faba), leaf protection (Example 13). It is filed as in vivo. The following applies: single active, leaf protection 7 days after mites placed, average of four evaluations. The source says: Using the alternative method for determining synergism the effect of each mixture of Spinosad and tocopheryl acetate is compared with the effect of the same rate of each of the active ingredients used alone.

Series [12] has as its system Dysdercus cingulatus nymphs. The series is classed as in vivo. The settings on record: 2000 ng applied on each nymph; 24 h after applying. The protocol:
A range of Abamectin solutions in acetone was prepared. Similarly, a range of tocopherol, all-rac alpha, solutions in acetone was prepared. Abamectin solution (2 μl), tocopherol solution (2 μl) or both were applied topically on nymphs of Dysdercus cingulatus. Abamectin was applied dorsally while tocopherol was applied ventrally. […] The mortality of the nymphs was recorded 24 h after applying the solutions.

Series [13] relates to Dysdercus cingulatus nymphs. The experiment in a line: Topical application of Abamectin/tocopherol acetone solutions, LD50 (Example 5). It is filed as in vivo. The following applies: sum of Abamectin and tocopherol; mortality recorded 48 h after applying. As for the experimental part:
A range of Abamectin solutions in acetone was prepared. Similarly, a range of tocopherol, all-rac alpha, solutions was prepared. Mixed solutions of Abamectin and tocopherol in acetone were prepared as well. Nymphs of Dysdercus cingulatus were treated topically with either an Abamectin acetone solution (2 μl), a tocopherol acetone solution (2 μl) or mixed solutions (2 μl). The Dysdercus cingulatus mortality was recorded 48 h after applying the products.
Log dose-mortality curves were constructed for the Abamectin and the tocopherol treatments. LD50 values based on the sum of Abamectin and tocopherol contents (ng active ingredient(s) per nymph) were calculated.
From the observed LD50 values for Abamectin and tocopherol expected LD50 values for the mixtures were calculated according to Wadley's formula.

The subject of the next series is Spodoptera exiqua larvae. The experiment in a line: Topical application of Emamectin-benzoate/tocopherol acetone solutions, LD50 (Example 9). The series is classed as in vivo. The settings on record: topical 1 μl acetone solution; mortality recorded 48 h after applying. The protocol: A range of Emamectin-benzoate and tocopherol, all-rac alpha, solutions with varying concentrations of each compound in acetone was prepared. Mixed solutions of Emamectin-benzoate and tocopherol, all-rac alpha, were also prepared. Larvae of Spodoptera exiqua were treated topically with either an Emamectin-benzoate acetone solution (1 μl), a tocopherol acetone solution (1 μl) or a solution containing both of the two compounds in the ratios 1:1 and 1:3 (1 μl). Log dose-mortality curves were constructed for the Emamectin-benzoate solutions, the tocopherol solutions and the mixtures. […] A comparison was made between the actual observed LD50 and the expected value, based on the Wadley method as described previously.

[14] abbreviates: 30 ng applied per nymph, after 24 h.
Where [15] appears, read: 30 ng applied per nymph, after 48 h.
[16] abbreviates: 100 ng applied per nymph, after 24 h.
The mark [17] stands for this setting: 100 ng applied per nymph, after 48 h.
[18] abbreviates: 300 ng applied per nymph, after 24 h.
Setting [19] is: 300 ng applied per nymph, after 48 h.

Consider `Cc1cc(O)cc2c1O[C@](C)(CCC[C@H](C)CCC[C@H](C)CCCC(C)C)CC2` [(+)delta-tocopherol], for which the “R (obs mortality/exp mortality)” value in series [1] came to 1.6.

Turning to `Cc1c(C)c2c(c(C)c1OC(=O)CCC(=O)O)CC[C@@](C)(CCC[C@H](C)CCC[C@H](C)CCCC(C)C)O2` [(+)alpha-tocopheryl succinate], the “R (obs mortality/exp mortality)” value in series [1] is 1.3.

Turning to `CO[C@H]1C[C@H](O[C@H]2[C@H](C)O[C@@H](O[C@@H]3/C(C)=C/C[C@@H]4C[C@@H](C[C@]5(C=C[C@H](C)[C@@H](C6CCCCC6)O5)O4)OC(=O)[C@@H]4C=C(C)[C@@H](O)[C@H]5OC/C(=C\C=C\[C@@H]3C)[C@]54O)C[C@@H]2OC)O[C@@H](C)[C@@H]1O` [DOR, Doramectin], in [2], the “LFI-50 T. cir.” value came out at 6.12 ppb, the “LFI-96 T. cir.” value was 13.14 ppb and the “LFI-99 T. cir.” value is reported as 18.52 ppb. In addition, in the series with Haemonchus contortus, the “LFI-50 H. con.” value worked out at 2.63 ppb, the “LFI-96 H. con.” value is 10.37 ppb and the “LFI-99 H. con.” value worked out at 16.30 ppb. For the same molecule, in [3], the “LFI-50 T. col.” value came to 2.57 ppb, the “LFI-96 T. col.” value was 8.04 ppb and the “LFI-99 T. col.” value was 12.22 ppb.

In general, EC50 refers to the concentration that produces a half-maximal response. Consider Ivermectin, for which the “Mortality (%) for each ingredient” value in series [4] (setting [14]) is listed as 8%. For the same molecule, the “Mortality (%) for each ingredient” value in series [4] (setting [15]) came to 27%. Moreover, the “Mortality (%) for each ingredient” value in [4] (setting [16]) is on record as 33%. Moreover, the “Mortality (%) for each ingredient” value in series [4] (setting [17]) is 65%. Moreover, in series [4] (setting [18]), the “Mortality (%) for each ingredient” value was 63%. Besides, the “Mortality (%) for each ingredient” value in series [4] (setting [19]) is 86%. For the same molecule, in series [2], the “LFI-50 T. cir.” value came to 6.37 ppb, the “LFI-96 T. cir.” value is 12.59 ppb and the “LFI-99 T. cir.” value is 17.35 ppb. Moreover, in the series on Haemonchus contortus, the “LFI-50 H. con.” value turned out to be 6.10 ppb, the “LFI-96 H. con.” value came to 32.12 ppb and the “LFI-99 H. con.” value was determined as 40.68 ppb. Moreover, in series [3], the “LFI-50 T. col.” value is recorded as 2.01 ppb, the “LFI-96 T. col.” value came out at 8.63 ppb and the “LFI-99 T. col.” value worked out at 10.81 ppb. In addition, the 50% effective concentration (EC50) in series [5] is 5.8 µM. For the same molecule, in series [6] (in total 20,000 ng/nymph applied dorsally, two replicates of ten nymphs), the LT50 turned out to be 9.1 h.

Consider `CC(=O)Oc1c(C)c(C)c2c(c1C)CC[C@@](C)(CCC[C@H](C)CCC[C@H](C)CCCC(C)C)O2` [(+)alpha-tocopheryl acetate], for which the “R (obs mortality/exp mortality)” value is given as 1.2 in series [1] and 1.9 with houseflies [7].

As for `Cc1c(C)c2c(c(C)c1O)CC[C@@](C)(CCC[C@H](C)CCC[C@H](C)CCCC(C)C)O2` [(+)alpha-tocopherol], the results for the “R (obs mortality/exp mortality)” value (in series [1]; in the series with houseflies [7]) were 1.1 and 2.0, respectively.

For `O=C(O)c1ccncc1` [Isonicotinic acid], in the series on houseflies [8], the “R (obs mortality/exp mortality)” value is greater than 2.

`CO[C@H]1C[C@H](O[C@@H]2/C(C)=C/C[C@@H]3C[C@@H](C[C@]4(CC[C@H](C)[C@@H](C5CCCCC5)O4)O3)OC(=O)[C@@H]3C=C(C)/C(=N/O)[C@H]4OC/C(=C\C=C\[C@@H]2C)[C@]43O)O[C@@H](C)[C@@H]1O` [Selamectin]: the “ED50 Larvae contact” value in [9] was 31 ppm. In series [10], the “ED50 Adult contact” value worked out at 24330 ppm. Further, the “ED50 Larvae systemic” value in [11] came to 1.5 ppm.

On to `COC(=O)c1cccnc1` [Methyl nicotinate], for which the “R (obs mortality/exp mortality)” value in the series with houseflies [8] was determined as 3.0.

In the case of `Cc1c(C)c2c(c(C)c1OC(=O)c1cccnc1)CC[C@@](C)(CCC[C@H](C)CCC[C@H](C)CCCC(C)C)O2` [(+)alpha-tocopheryl nicotinate], the “R (obs mortality/exp mortality)” value in [1] is listed as 1.2; in the series with houseflies [7], 3.0; in the series with houseflies [8] it was 3.0.

In the case of Spinosad, the “% protection” value in the series with Tetranychus urticae (100 g/ha) and with Tetranychus urticae (300 g/ha) was 5% in each case.

Take `Cc1c(C)c2c(c(C)c1O)CCC(C)(CCCC(C)CCCC(C)CCCC(C)C)O2` (racemic) [tocopherol, tocopherol, all-rac alpha]: the “% Mortality for each ingredient” value in series [12] was found to be 0%. The LD50obs in series [13] is on record as >20,000 ng tocopherol ng AI(s) per nymph; in the series on Spodoptera exiqua larvae, >20000 ng AI(s)/larvae. The “Mortality (%) for each ingredient” value in [4] (setting [14]), in series [4] (setting [15]), in series [4] (setting [16]), in series [4] (setting [17]), in [4] (setting [18]) and in series [4] (setting [19]) was 0% throughout. Moreover, the “Mortality during the test period” value in [6] (20,000 ng tocopherol per nymph, 24 h test period) is “did not die”.

As for `O=C(O)c1cccnc1` [Nicotinic acid], the “R (obs mortality/exp mortality)” value in the series with houseflies [8] is on record as 1.4.

For the molecule Emamectin-benzoate, the LD50obs with Spodoptera exiqua larvae is 4.30 ng AI(s)/larvae.

For the molecule `Cc1c(C)c2c(c(C)c1O)CCC(C)(C(=O)O)O2` (centres unmarked) [Trolox, 6-hydroxy-2,5,7,8-tetramethylchroman-2-carboxylic acid], in the series on houseflies [7], the “R (obs mortality/exp mortality)” value is recorded as 1.3.

Consider `CCOC(=O)c1cccnc1` [Ethyl nicotinate], for which the “R (obs mortality/exp mortality)” value with houseflies [8] was 1.4.

The values are drawn from patent publication US20090111759A1, “Synergistic Combination of Glutamate-and Gaba-Gated Chloride Agonist Pesticide and at Least One Vitamin E, Niacin, or Derivatives Thereof” (priority 2006, published 2009).
